# Assay results taken from PubChem BioAssay (NCI).
# Where “and” joins values, the source holds several entries; their conditions need not be identical. Equal entries are not always repeated.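 All cell lines were grown in 96-well plates and treated with compound for 48 hours. The concentration for 50% growth inhibition is given as GI50. At the TGI there is no net growth.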
# How the values were obtained:
# Test in all cases: NCI-60 cell line screen, 48 h
# [1] = tested on: 786-0 renal
# [2] = tested on: A498 renal
# [3] = tested on: A549 NSCLC
# [4] = tested on: ACHN renal
# [5] = tested on: BT-549 breast
# [6] = tested on: CAKI-1 renal
# [7] = tested on: CCRF-CEM leukemia
# [8] = tested on: COLO 205 colon
# [9] = tested on: DU-145 prostate
# [10] = tested on: EKVX NSCLC
# [11] = tested on: HCC-2998 colon
# [12] = tested on: HCT-116 colon
# [13] = tested on: HCT-15 colon
# [14] = tested on: HL-60(TB) leukemia
# [15] = tested on: HOP-62 NSCLC
# [16] = tested on: HOP-92 NSCLC
# [17] = tested on: HS 578T breast
# [18] = tested on: HT29 colon
# [19] = tested on: IGROV1 ovarian
# [20] = tested on: K-562 leukemia
# [21] = tested on: KM12 colon
# [22] = tested on: LOX IMVI melanoma
# [23] = tested on: M14 melanoma
# [24] = tested on: MALME-3M melanoma
# [25] = tested on: MCF7 breast
# [26] = tested on: MDA-MB-231 breast
# [27] = tested on: MDA-MB-435
# [28] = tested on: MDA-N
# [29] = tested on: MOLT-4 leukemia
# [30] = tested on: NCI-H226 lung
# [31] = tested on: NCI-H23 lung
# [32] = tested on: NCI-H460 lung
# [33] = tested on: NCI-H522 lung
# [34] = tested on: NCI/ADR-RES ovarian
# [35] = tested on: OVCAR-3 ovarian
# [36] = tested on: OVCAR-4 ovarian
# [37] = tested on: OVCAR-5 ovarian
# [38] = tested on: OVCAR-8 ovarian
# [39] = tested on: PC-3 prostate
# [40] = tested on: RPMI-8226 leukemia
# [41] = tested on: RXF 393 renal
# [42] = tested on: SF-268 CNS
# [43] = tested on: SF-295 CNS
# [44] = tested on: SF-539 CNS
# [45] = tested on: SK-MEL-2 melanoma
# [46] = tested on: SK-MEL-28 melanoma
# [47] = tested on: SK-MEL-5 melanoma
# [48] = tested on: SK-OV-3 ovarian
# [49] = tested on: SN12C renal
# [50] = tested on: SNB-19 CNS
# [51] = tested on: SNB-75 CNS
# [52] = tested on: SR leukemia
# [53] = tested on: SW-620 colon
# [54] = tested on: T-47D breast
# [55] = tested on: TK-10 renal
# [56] = tested on: U251 CNS
# [57] = tested on: UACC-257 melanoma
# [58] = tested on: UACC-62 melanoma
# [59] = tested on: UO-31 renal
# [60] = tested on: DMS 114 small cell lung
# [61] = tested on: DMS 273 small cell lung
# [62] = tested on: KM20L2 colon
# [63] = tested on: LXFL 529 NSCLC
# [64] = tested on: M19-MEL melanoma
# [65] = tested on: XF 498 CNS
structure (smiles),measurement,setting,value
Cc1nc2c(N3CCCC3)nc(N3CCNCC3)nc2nc1NCc1ccccc1,GI50,[1],1.62 µM
same,TGI,[1],10.5 µM and 3.18 µM
same,GI50,[2],14.2 µM
same,TGI,[2],9.77 µM and 27.2 µM
same,GI50,[3],5.45 µM
same,TGI,[3],12.6 µM and 14.2 µM
same,GI50,[4],2.69 µM
same,TGI,[4],7.54 µM and 16.5 µM
same,GI50,[5],5.05 µM
same,TGI,[5],10.7 µM and 14.8 µM
same,GI50,[6],4.82 µM
same,TGI,[6],10.6 µM and 14 µM
same,GI50,[7],4.65 µM
same,TGI,[7],11 µM and 6.27 µM
same,GI50,[8],1.77 µM
same,TGI,[8],7.59 µM and 3.32 µM
same,GI50,[9],5.35 µM
same,TGI,[9],19.4 µM and 21.3 µM
same,GI50,[10],5.46 µM
same,TGI,[10],10.6 µM and 20.8 µM
same,TGI,[11],2.95 µM
same,GI50,[12],3.96 µM
same,TGI,[12],13.4 µM and 11.3 µM
same,GI50,[13],4.17 µM
same,TGI,[13],8.9 µM and 4.53 µM
same,GI50,[14],4.71 µM
same,TGI,[14],13.2 µM and 11.8 µM
same,GI50,[15],5.76 µM
same,TGI,[15],11.8 µM and 8.26 µM
same,TGI,[16],7.83 µM and 13.7 µM
same,GI50,[17],7.4 µM
same,TGI,[17],17 µM and 18.7 µM
same,GI50,[18],1.95 µM
same,TGI,[18],8.36 µM and 11.7 µM
same,GI50,[19],4.49 µM
same,TGI,[19],9.84 µM and 15.1 µM
same,GI50,[20],1.06 µM
same,TGI,[20],23.8 µM
same,GI50,[21],6.53 µM
same,TGI,[21],26.6 µM and 13.3 µM
same,GI50,[22],2.47 µM
same,TGI,[22],16.8 µM and 3.19 µM
same,GI50,[23],2.64 µM
same,TGI,[23],9.12 µM and 3.53 µM
same,GI50,[24],7.17 µM
same,TGI,[24],14.5 µM and 4.23 µM
same,GI50,[25],5.99 µM
same,TGI,[25],13.3 µM and 5.92 µM
same,GI50,[26],5.67 µM
same,TGI,[26],12.1 µM and 10.1 µM
same,GI50,[27],4.36 µM
same,TGI,[27],10 µM and 6.41 µM
same,GI50,[28],4.38 µM
same,TGI,[28],9.44 µM and 3.28 µM
same,GI50,[29],3.34 µM
same,TGI,[29],15.1 µM and > 21.2 µM
same,GI50,[30],7.54 µM
same,TGI,[30],16.1 µM and 28.4 µM
same,GI50,[31],6.77 µM
same,TGI,[31],12.7 µM and 23.7 µM
same,GI50,[32],5.97 µM
same,TGI,[32],13.3 µM and 13.4 µM
same,GI50,[33],0.869 µM
same,TGI,[33],4.56 µM and 4.21 µM
same,GI50,[34],6.84 µM
same,TGI,[34],13.6 µM and 29 µM
same,GI50,[35],3.28 µM
same,TGI,[35],9.27 µM and 10.7 µM
same,GI50,[36],5.57 µM
same,TGI,[36],11.7 µM and 21.7 µM
same,GI50,[37],6.11 µM
same,TGI,[37],11.6 µM and 26.1 µM
same,GI50,[38],5.73 µM
same,TGI,[38],11 µM and 14.5 µM
same,TGI,[39],11 µM and 17 µM
same,GI50,[40],4.08 µM
same,TGI,[40],10.2 µM and 4.84 µM
same,GI50,[41],4.81 µM
same,TGI,[41],11 µM and 2.66 µM
same,GI50,[42],5.75 µM
same,TGI,[42],12.2 µM and 15.1 µM
same,GI50,[43],5.81 µM
same,TGI,[43],11.3 µM and 5.02 µM
same,GI50,[44],6.21 µM
same,TGI,[44],13.4 µM and 7 µM
same,GI50,[45],4.48 µM
same,TGI,[45],9.42 µM and 9.97 µM
same,TGI,[46],3.75 µM
same,GI50,[47],4.94 µM
same,TGI,[47],9.98 µM and 3.06 µM
same,GI50,[48],6.15 µM
same,TGI,[48],11.7 µM and 20.5 µM
same,GI50,[49],6.39 µM
same,TGI,[49],13 µM and 19.9 µM
same,TGI,[50],10.6 µM and 16.3 µM
same,GI50,[51],1.85 µM
same,TGI,[51],4.11 µM and 4.69 µM
same,GI50,[52],1.53 µM
same,TGI,[52],20 µM and > 20.8 µM
same,GI50,[53],5.9 µM
same,TGI,[53],12.5 µM and 7.27 µM
same,GI50,[54],3.23 µM
same,TGI,[54],13.8 µM and 4.96 µM
same,TGI,[55],11.8 µM and 17.6 µM
same,GI50,[56],4.27 µM
same,TGI,[56],11.7 µM and 13 µM
same,GI50,[57],7.15 µM
same,TGI,[57],12.9 µM and 3.64 µM
same,GI50,[58],6.15 µM
same,TGI,[58],12.7 µM and 7.58 µM
same,GI50,[59],1.48 µM
same,TGI,[59],6.06 µM and 6.39 µM
CS(=O)(=O)N(CCC#N)c1ccc(C=O)cc1,TGI,[1],> 100 µM
same,TGI,[2],> 100 µM
same,TGI,[3],> 100 µM
same,TGI,[4],> 100 µM
same,TGI,[6],> 100 µM
same,TGI,[60],> 100 µM
same,TGI,[61],> 100 µM
same,TGI,[10],> 100 µM
same,TGI,[11],> 100 µM
same,TGI,[12],> 100 µM
same,TGI,[13],> 100 µM
same,TGI,[14],> 100 µM
same,TGI,[15],> 100 µM
same,TGI,[18],> 100 µM
same,TGI,[19],> 100 µM
same,TGI,[20],> 100 µM
same,TGI,[21],> 100 µM
same,TGI,[62],> 100 µM
same,TGI,[22],> 100 µM
same,TGI,[63],> 100 µM
same,TGI,[23],> 100 µM
same,TGI,[64],> 100 µM
same,TGI,[24],> 100 µM
same,TGI,[29],> 100 µM
same,TGI,[30],> 100 µM
same,TGI,[32],> 100 µM
same,TGI,[33],> 100 µM
same,TGI,[35],> 100 µM
same,TGI,[36],> 100 µM
same,TGI,[37],> 100 µM
same,TGI,[38],> 100 µM
same,TGI,[40],> 100 µM
same,TGI,[42],> 100 µM
same,TGI,[43],> 100 µM
same,TGI,[44],> 100 µM
same,TGI,[45],> 100 µM
same,TGI,[46],> 100 µM
same,TGI,[47],> 100 µM
same,TGI,[48],> 100 µM
same,TGI,[49],> 100 µM
same,TGI,[50],> 100 µM
same,TGI,[51],> 100 µM
same,TGI,[52],> 100 µM
same,TGI,[53],> 100 µM
same,TGI,[56],> 100 µM
same,TGI,[57],> 100 µM
same,TGI,[58],> 100 µM
same,TGI,[59],> 100 µM
same,TGI,[65],> 100 µM
